For eight compounds, IC50 results are on record in patent publication US20240197888A1, “SOS1 PROTEIN DEGRADERS, PHARMACEUTICAL COMPOSITIONS THEREOF, AND THEIR THERAPEUTIC APPLICATIONS” (BioTheryX, Inc., priority 2021, published 2024).

The structures appear in SMILES notation.

Holding throughout (type): cell-based
One assay relates to H358 (G12C) cells. In words: Cell viability assay (CELLTITER-GLO), H358 cells. The settings on record: Homo sapiens, NCI-H358, 72 h, Inhibition of cancerous cells, 3 days incubation, luminescence. The method, then:
(§1) AsPC-1, H358, and SW48 cells were cultured in RPMI 1640 media supplemented with 10% fetal bovine serum, streptomycin, and penicillin. Lovo and SW480 cells were cultured in DMEM media supplemented with 10% fetal bovine serum, streptomycin, and penicillin. The cell lines were plated in their respective medium supplemented with 2.5% fetal bovine serum, streptomycin, and penicillin. All cell lines were plated in white walled 96-well plates at 2,000 cells/well or 384-well plates at 500 cells/well, except Lovo, which were plated at 4,000 or 1,000 cells/well, respectively. The cells were incubated in DMSO (control) or a compound for 3 days at 37° C. under 5% CO2. A CELLTITER-GLO® reagent ([…] was then added to each well. After a 10 min incubation with shaking, luminescence was measured using an ENVISION® multimode plate reader. IC50 values are summarized in Table 1.

For a further assay, the system named is SW48 (wt) cells. Put plainly: Cell viability assay (CELLTITER-GLO), SW48 cells. The settings on record: Homo sapiens, 72 h, Inhibition of cancerous cells, 3 days incubation, luminescence. The procedure: as §1
A further assay has as its system SW480 (G12V) cells. Put plainly: Cell viability assay (CELLTITER-GLO), SW480 cells. The settings on record: Homo sapiens, 72 h, Inhibition of cancerous cells, 3 days incubation, luminescence. The procedure:
as §1

The subject of the next assay is Lovo (G13D) cells. Put plainly: Cell viability assay (CELLTITER-GLO), Lovo cells. The settings on record: Homo sapiens, 72 h, Inhibition of cancerous cells, 3 days incubation, luminescence. The method, then:
as §1

`CNCc1ccccc1-c1csc([C@H](C)Nc2nc(C)nc3cc(OCCOCCNC(=O)CC45CC6CC(CC(C6)C4)C5)c(OC)cc23)c1` [Compound A6, 2-((3r,5r,7r)-adamantan-1-yl)-N-(2-(2-((6-methoxy-2-methyl-4-(((S)-1-(4-(2-((methylamino)methyl)phenyl)thiophen-2-yl)ethyl)amino)quinazolin-7-yl)oxy)ethoxy)-ethyl)acetamide]: the IC50 with H358 (G12C) cells is 0.97 µM; in the assay on SW48 (wt) cells, 1 µM; in the assay on SW480 (G12V) cells, 0.76 µM; in the assay with Lovo (G13D) cells, 0.48 µM.
Taken in the same sequence, the figures for `CNCc1ccccc1-c1csc([C@H](C)Nc2nc(C)nc3cc(OCCOCCOC(=O)CC45CC6CC(CC(C6)C4)C5)c(OC)cc23)c1` [Compound A48, 2-(2-((6-Methoxy-2-methyl-4-(((S)-1-(4-(2-((methylamino)methyl)phenyl)-thiophen-2-yl)ethyl)amino)quinazolin-7-yl)oxy)ethoxy)ethyl 2-((3r,5r,7r)-adamantan-1-yl)acetate] were 0.94 µM, 0.57 µM, 0.57 µM and 0.58 µM.
As for `COc1cc2c(N[C@H](C)c3cccc(Br)c3)nc(C)nc2cc1OCCCCCCCC(=O)N[C@H]1CCC(=O)NC1=O` [Compound A77, 8-((4-(((R)-1-(3-Bromophenyl)ethyl)amino)-6-methoxy-2-methylquinazolin-7-yl)oxy)-N—((S)-2,6-dioxopiperidin-3-yl)octanamide], the IC50 worked out at 6.7 µM in the assay on H358 (G12C) cells, 5.1 µM in the assay with SW48 (wt) cells, 3.9 µM in the assay with SW480 (G12V) cells and 2.9 µM in the assay on Lovo (G13D) cells.
Turning to `COc1cc2c(N[C@H](C)c3cccc(Br)c3)nc(C)nc2cc1OCCCCCCCN1CCCC(F)(F)C1` [Compound A44, (R)—N-(1-(3-Bromophenyl)ethyl)-7-((7-(3,3-difluoropiperidin-1-yl)heptyl)oxy)-6-methoxy-2-methylquinazolin-4-amine], the half-inhibitory concentration (IC50) in the assay with H358 (G12C) cells turned out to be 1.9 µM; in the assay on SW48 (wt) cells, 2 µM; in the assay on SW480 (G12V) cells it was 1.2 µM; in the assay on Lovo (G13D) cells, 0.55 µM.
On to `CNCc1ccccc1-c1csc([C@@H](C)Nc2nc(C)nc3cc(OCCNC(=O)CC45CC6CC(CC(C6)C4)C5)c(OC)cc23)c1` [Compound A51, 2-((3r,5r,7r)-Adamantan-1-yl)-N-(2-((6-methoxy-2-methyl-4-(((R)-1-(4-(2-((methylamino)methyl)phenyl)thiophen-2-yl)ethyl)amino)quinazolin-7-yl)oxy)ethyl)acetamide], for which the IC50 was found to be 1.1 µM in the assay on H358 (G12C) cells, 0.75 µM in the assay on SW48 (wt) cells, 0.62 µM in the assay with SW480 (G12V) cells and 0.47 µM in the assay on Lovo (G13D) cells.
`COc1cc2c(N[C@H](C)c3cccc(Br)c3)nc(C)nc2cc1OCCCCCCC(=O)N1CCCCC1` [Compound A36, (R)-7-((4-((1-(3-Bromophenyl)ethyl)amino)-6-methoxy-2-methylquinazolin-7-yl)oxy)-1-(piperidin-1-yl)heptan-1-one]: the IC50 in the assay on H358 (G12C) cells amounted to 1.3 µM; in the assay with SW48 (wt) cells, 1.7 µM; in the assay with SW480 (G12V) cells it was 0.56 µM; with Lovo (G13D) cells, 0.78 µM.
Consider `CNCc1ccccc1-c1csc([C@H](C)Nc2nc(C)nc3cc(OCCCCCCCN4CCCCC4)c(OC)cc23)c1` [Compound A3, (S)-6-methoxy-2-methyl-N-(1-(4-(2-((methylamino)methyl)phenyl)thiophen-2-yl)ethyl)-7-((7-(piperidin-1-yl)heptyl)oxy)quinazolin-4-amine], for which the IC50 is 0.61 µM in the assay with H358 (G12C) cells, 0.5 µM with SW48 (wt) cells, 0.61 µM with SW480 (G12V) cells and 0.34 µM in the assay on Lovo (G13D) cells.
Regarding `CNCc1ccccc1-c1csc([C@@H](C)Nc2nc(C)nc3cc(OCCCCCCCN4CCCCC4)c(OC)cc23)c1` [Compound A2, (R)-6-methoxy-2-methyl-N-(1-(4-(2-((methylamino)methyl)phenyl)thiophen-2-yl)ethyl)-7-((7-(piperidin-1-yl)heptyl)oxy)quinazolin-4-amine], the IC50 is 0.47 µM in the assay on H358 (G12C) cells, 0.33 µM in the assay with SW48 (wt) cells, 0.51 µM in the assay with SW480 (G12V) cells and 0.18 µM with Lovo (G13D) cells.
